Source: paper PMC8411703 (Frontiers in Pharmacology, 2021)

How the values were obtained:
[1] = Protocol: This study was a prospective, multicentric, PK/PD study. It included pediatric patients who were admitted to the pediatric ICU between July 2017 and November 2019 at two hospitals in Santiago, Chile. The Ethical Committee for Research of Clinica Las Condes approved this prospective study (approval number: M012017) and required signed written informed consent from each patient’s parents. […] Neonates were excluded.
Meropenem was administered as a 3-h infusion with intravenous doses of 20–40 mg/kg every 8 or 12 h. […] Both antibiotics’ doses were adjusted according to renal function. Blood samples were collected at 1 and 3 h post-infusion and before the following dose for meropenem.
Unbound meropenem plasma concentrations were determined by high-performance liquid chromatography (Agilent Infinity 1,260, Santa Clara, United States) with a UV detector. The methodology was adapted to the equipment conditions from available publications ([Elkhaïli et al., 1996]; [McWhinney et al., 2010]; [Wolff et al., 2013]) and validated according to the recommendations of the Bioanalytical Method Validation Guidance for Industry ([U.S. Department of Health and Human Services, 2018]). The stationary phase was a Zorbax Eclipse Plus C18 column (3.5 μm, 75 × 4.6 mm) and the mobile phase was acetonitrile with 10 mM ammonium acetate (pH 4.0) (5:95, organic solvent:buffer initiallity) in gradient to minute 7(50:50, organic solvent:buffer). Meropenem was detected by UV detection at 298 nm. The flow rate was 1.0 ml/min. […] Standard curves were prepared in blank human plasma. […] Meropenem in plasma samples was quantified using the peak area of standard samples for calibrations.
For both analytes, the measurement was performed on the free-drug, non-protein bound fraction.
Pharmacokinetic modelling was performed using PMetrics 1.5.0 with RStudio 0.99.902 and digital compiler Gfortran 5.2. […] Primary pharmacokinetic parameters of CL and Vd for the central compartment were calculated. Elimination from the central compartment and inter-compartmental distribution were modelled as first-order processes. Inter-compartmental distribution was described as rate of transfer from the unbound compartment to a peripheral compartment (Kcp) and rate of transfer from a peripheral compartment to the unbound compartment (Kpc). […] Volume of the peripheral compartment (Vp) was calculated as (Vc*Kcp)/Kpc, where Vc is the volume of the central compartment. Total Vd was calculated as the sum of Vc and Vp.
We selected the final model on the basis of minimizing the Akaike Information Criterion (AIC) and likelihood of the nested models (-2*Log-likelihood, -2*LL), with both criteria penalized by the number of parameters in the model. A reduction of -2*LL as calculated within Pmetrics was used for statistical comparison of nested models. We also factored bias (mean weighted predicted-observed error) and imprecision (bias-adjusted, mean weighted squared predicted-observed error) and correlation co-efficient into the selection of the final model. Shrinkage was calculated as the percentage of total variance in each model probability distribution.
Covariate model building was performed using sequential assessment of biologically plausible clinical characteristics. Continuous data was used for all covariates tested, with the exception of gender, which was male/female. The association of the covariates versus parameters was assessed by regression with linear or non-linear associations able to be used in the covariate model testing with inclusion based upon biological plausibility and a statistically significant improvement in log-likelihood. Inclusion age (months), weight (kg), height (cm), gender, C-reactive protein (mg/L), albumin (g/L), total bilirubin (mg/dl), serum creatinine (mg/dl), 24-h hydric balance (ml).

[2] = in vivo; cited from earlier work
Pseudomonas aeruginosa = conditions: in vivo
Description: For meropenem analysis, we used the plasma concentration at 1 h after the end of a 3-h infusion of the drug corresponding to a dosing interval of 50%.

[3] = design: method as in Rybak, 2006; conditions: ref Rybak, 2006; cited from earlier work
[4] = pediatric ECMO patients, 11 PK profiles, population median

Row | SMILES | CL (clearance of meropenem), median ([1]; human, in vivo) | Kcp (rate of transfer central to peripheral compartment), meropenem, mean ([1]; human, in vivo) | Kcp, meropenem, median ([1]; human, in vivo) | Kpc (rate of transfer peripheral to central compartment), meropenem, mean ([1]; human, in vivo) | Kpc, meropenem, median ([1]; human, in vivo) | Vc (central volume of distribution of meropenem), median ([1]; human, in vivo) | Vd (vc + vp), meropenem, mean ([1]; human, in vivo) | Vp (Vc*kcp/kpc), meropenem, mean ([1]; human, in vivo) | meropenem clearance in most reported studies, range [2] | PK profiles achieving PK/PD target fT 50% > 4 x MIC (Pseudomonas aeruginosa) | Kcp (rate of transfer central to peripheral compartment), vancomycin, mean ([1]; pediatric ECMO patients, 11 PK profiles, population mean) | Kcp, vancomycin, median [1, 4] | Kpc, vancomycin, median [1, 4] | elimination route [3]
1 | C[C@@H](O)[C@H]1C(=O)N2C(C(=O)O)=C(S[C@@H]3CN[C@H](C(=O)N(C)C)C3)[C@H](C)[C@H]12 [meropenem] | 2.4 mL/min/kg | 1.37 h⁻¹ | 1.30 h⁻¹ | 1.25 h⁻¹ | 1.34 h⁻¹ | 0.289 L/kg | 0.606 L/kg | 0.317 L/kg | 2.17 to 17.55 mL/min/kg | 91% |  |  |  | 
2 | CN[C@H](CC(C)C)C(=O)N[C@H]1C(=O)N[C@@H](CC(N)=O)C(=O)N[C@H]2C(=O)N[C@H]3C(=O)N[C@H](C(=O)N[C@H](C(=O)O)c4cc(O)cc(O)c4-c4cc3ccc4O)[C@H](O)c3ccc(c(Cl)c3)Oc3cc2cc(c3O[C@@H]2O[C@H](CO)[C@@H](O)[C@H](O)[C@H]2O[C@H]2C[C@](C)(N)[C@H](O)[C@H](C)O2)Oc2ccc(cc2Cl)[C@H]1O [vancomycin] |  |  |  |  |  |  |  |  |  |  | 0.483 h⁻¹ | 0.481 h⁻¹ | 0.286 h⁻¹ | nearly completely renally eliminated
